Assay results reported in paper PMC10643130, “Molecular basis for selective uptake and elimination of organic anions in the kidney by OAT1” (Nature Structural & Molecular Biology, 2023).
Numbering of substitutions follows the chain as printed. “And” between values parts separate entries of the source, which are not always exact repeats. Identical values can stand only once. Like-named read-outs stand apart in the source and are kept apart here. One block for each molecule: values may come before it.

How the values were obtained:
[1] = biological target: T1, HsOAT1 truncation (lacks last 10 amino acids) (Homo sapiens, UniProt Q4U2R8); experiment: Cell-based 6-CF transport assay, truncated HsOAT1 lacking the last 10 amino acids; settings: Truncation (+P), 0.1 mM pemetrexed
T1 construct: expressed in transfected cells; host or cells: HeLa
T1 sequence (Q4U2R8 1-552 limits assumed): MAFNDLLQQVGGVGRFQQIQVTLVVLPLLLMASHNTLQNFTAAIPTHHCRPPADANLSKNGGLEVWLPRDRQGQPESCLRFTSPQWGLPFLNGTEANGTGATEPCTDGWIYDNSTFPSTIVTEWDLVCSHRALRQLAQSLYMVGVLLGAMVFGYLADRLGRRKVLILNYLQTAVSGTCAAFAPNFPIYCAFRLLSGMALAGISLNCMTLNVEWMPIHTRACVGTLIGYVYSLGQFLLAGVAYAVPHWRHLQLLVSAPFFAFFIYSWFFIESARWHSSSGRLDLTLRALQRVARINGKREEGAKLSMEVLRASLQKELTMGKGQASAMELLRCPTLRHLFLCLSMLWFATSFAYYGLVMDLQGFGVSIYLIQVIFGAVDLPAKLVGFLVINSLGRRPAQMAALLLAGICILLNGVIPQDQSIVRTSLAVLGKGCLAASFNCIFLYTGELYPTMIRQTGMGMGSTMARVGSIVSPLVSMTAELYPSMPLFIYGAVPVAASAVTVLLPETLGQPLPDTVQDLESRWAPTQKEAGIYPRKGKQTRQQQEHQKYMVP

[2] = biological target: T2, wild-type human OAT1 (HsOAT1) (Homo sapiens, UniProt Q4U2R8); experiment: Cell-based 6-CF transport assay, wild-type HsOAT1 in HeLa cells; settings: for effect on OAT1 transport: 10 mM sodium phosphate; for 6-CF transport in presence of dicarboxylate, single experiments: dicarboxylate 0.5 mM, 8 minutes, n = 8
T2 sequence (Q4U2R8 1-563): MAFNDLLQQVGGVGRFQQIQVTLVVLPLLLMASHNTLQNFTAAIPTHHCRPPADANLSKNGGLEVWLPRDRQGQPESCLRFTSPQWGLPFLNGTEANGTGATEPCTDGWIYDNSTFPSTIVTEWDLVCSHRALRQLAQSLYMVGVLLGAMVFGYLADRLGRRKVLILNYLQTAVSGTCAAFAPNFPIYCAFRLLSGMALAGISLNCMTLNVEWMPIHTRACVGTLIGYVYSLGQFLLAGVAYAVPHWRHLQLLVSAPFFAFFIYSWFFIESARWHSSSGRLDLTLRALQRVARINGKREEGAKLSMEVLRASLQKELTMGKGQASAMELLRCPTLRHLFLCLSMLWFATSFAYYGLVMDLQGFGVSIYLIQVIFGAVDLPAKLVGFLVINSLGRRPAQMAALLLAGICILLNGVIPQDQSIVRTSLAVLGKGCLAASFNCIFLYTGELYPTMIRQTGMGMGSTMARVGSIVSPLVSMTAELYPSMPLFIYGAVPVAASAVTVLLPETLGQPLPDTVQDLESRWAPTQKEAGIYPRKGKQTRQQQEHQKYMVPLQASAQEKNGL
Experimental: (§1) To assay HsOAT1 transporter activity the model substrate 6-carboxyfluorescein (6-CF)[46],[47]
(§2) For transport assays, 1 × 10^5 cells per well were seeded into 24-well plates and 24 h later transfected using FUGENE HD (Promega E2311) Transfection Reagent (0.4 μg DNA per 1 μl of FUGENE per well) with HsOAT1 constructs containing a C-terminal FLAG tag in the vector pCDNA3.1 for 36 h. Expression of each mutant of HsOAT1 was assessed through western blotting on membrane fractions using an anti-FLAG antibody 1:3,000 dilution (Merck F1804), using a loading control of anti-β-actin 1:5,000 dilution (Merck A2228) (Extended Data Fig. 4). […] Background fluorescence was subtracted from cells transfected with the empty plasmid, and the data were normalized to 100%. To assess the activity of HsOAT1 in the presence and absence of chloride, the buffer was 120 mM NaCl, 28 mM glucose and 25 mM HEPES, pH 7.2 or for chloride-free conditions, and 120 mM sodium gluconate was used. […] To study the effect of ligands or inhibitors, the compound of interest was added to the assay buffer at the desired concentration. […] Each concentration was repeated three times to calculate standard errors, and the whole experiment was repeated three times to calculate the mean IC50 and standard error.

[3] = biological target: T3, human OAT1 Gly227Ala (G227A) (Homo sapiens, UniProt Q4U2R8, G227A); experiment: cell-based
T3 sequence (Q4U2R8 1-563 G227A): T2 sequence (Q4U2R8 1-563) with G227A

[4] = biological target: T4, human OAT1 Tyr230Phe (Y230F) (Homo sapiens, UniProt Q4U2R8, Y230F); experiment: Cell-based 6-CF transport assay, HsOAT1 Tyr230Phe mutant; settings: 8 min
T4 sequence (Q4U2R8 1-563 Y230F): T2 sequence (Q4U2R8 1-563) with Y230F

[5] = biological target: T5, OAT1 Ser350Ala (S350A) mutant, human (Homo sapiens, UniProt Q4U2R8, S350A); experiment: Cell-based 6-CF transport assay, HsOAT1 Ser350Ala mutant; settings: pH 7.2, probe 6-carboxyfluorescein (6-CF), 10 μM 6-CF, HeLa cells, mean ± s.d.
T5 sequence (Q4U2R8 1-563 S350A): T2 sequence (Q4U2R8 1-563) with S350A

[6] = biological target: T2, wild-type human OAT1 (HsOAT1); experiment: cell-based
Experimental: as §1, §2

OAT3 = settings: cited from earlier work
URAT1 = settings: cited from earlier work
OAT2 = settings: cited from earlier work
RnOat1 = biological target: T6, RnOat1 (Rattus norvegicus, UniProt O35956); experiment: Sybody binding by biolayer interferometry; parameters: unit not given here
T6 construct: made in house; host or cells: Sf9 insect cells (baculovirus)
T6 sequence (O35956 1-551): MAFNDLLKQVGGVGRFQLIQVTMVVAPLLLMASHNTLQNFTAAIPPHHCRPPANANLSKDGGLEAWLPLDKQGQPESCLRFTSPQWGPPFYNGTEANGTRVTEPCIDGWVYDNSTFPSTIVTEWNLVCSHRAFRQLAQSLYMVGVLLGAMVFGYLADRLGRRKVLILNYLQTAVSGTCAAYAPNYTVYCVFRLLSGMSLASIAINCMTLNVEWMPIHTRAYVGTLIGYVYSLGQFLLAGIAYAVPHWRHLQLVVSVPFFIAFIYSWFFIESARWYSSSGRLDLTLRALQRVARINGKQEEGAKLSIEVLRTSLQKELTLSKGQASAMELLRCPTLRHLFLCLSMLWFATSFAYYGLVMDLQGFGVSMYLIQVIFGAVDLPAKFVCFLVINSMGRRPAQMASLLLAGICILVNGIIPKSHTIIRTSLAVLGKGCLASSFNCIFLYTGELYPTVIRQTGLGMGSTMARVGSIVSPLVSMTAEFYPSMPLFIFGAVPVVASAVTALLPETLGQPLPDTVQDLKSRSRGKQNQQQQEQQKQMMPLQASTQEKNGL
Experimental: Sybody selection was performed against C-terminally Avi-Flag-tagged and biotinylated RnOat1 using methods described previously in ref. [48]. A high-affinity sybody with a slow off rate, as measured using biolayer interferometry (Octet Red 384), was identified from the concave library. The sybody was cloned and expressed as a C-terminally MycHis tagged construct from the pSB-init vector (Addgene no. 110100), (pSB_Syb25 Addgene no. 197992).

[7] = biological target: T7, Biotinylated RnOat1 with a C-terminal Avi-tag followed by a FLAG tag (Rattus norvegicus, UniProt O35956, biotin (on the Avi-tag, by GST-BirA)); experiment: BLI; Octet Red 384; who was immobilised and the buffer are not told; n = 4 independent experiments; settings: both partners purified
T7 construct: Organic anion transporter 1 (Oat1, Slc22a6) of Rattus norvegicus; Used for the sybody selection; The host is likely Sf9 as for the structural construct (surmise); also called C-terminally Avi-Flag-tagged and biotinylated RnOat1; not shown: Avi-tag, C-terminal, kept

[8] = 8 min, read-out: 6-CF uptake, Mean

6-CF uptake, MEAN ([1]; 1 min): 19.52
6-CF uptake, MEAN ([1]; 5 min): 17.65
6-CF uptake, MEAN ([1]; 8 min): 16.52
6-CF uptake, MEAN ([1]; 10 min): 12.32
inhibition of 6-CF uptake ([2]; 0.1 mM in assay buffer): fully inhibited
substrate quality in 6-CF assay ([2]; 0.5 mM, uptake after 8 minutes, similar to literature ref 20): poor substrates
6-CF uptake, MEAN ([2]; WT (+P), 0.1 mM pemetrexed, 1 min): 22
6-CF uptake, MEAN ([2]; WT (+P), 0.1 mM pemetrexed, 5 min): 18.75
6-CF uptake, MEAN ([2]; WT (+P), 0.1 mM pemetrexed, 8 min): 24.75
6-CF uptake, MEAN ([2]; WT (+P), 0.1 mM pemetrexed, 10 min): 17.25
6-CF uptake in presence of substrate, single experiments ([2]; substrate 0.5 mM, uptake after 8 minutes): 71%
Molecule: Nc1nc2[nH]cc(CCc3ccc(C(=O)N[C@@H](CCC(=O)O)C(=O)O)cc3)c2c(=O)[nH]1 [pemetrexed]

effect on OAT1 transport [2]: no impact
effect on OAT1 transport ([2]; listed as sodium phosphate): no effect
Molecule: O=P(O)(O)O [phosphate, sodium phosphate]

remaining activity at 1 µM [3, 8]: 99.8%
remaining activity at 2 µM [3, 8]: 82.7%
remaining activity at 2.30103 µM [3, 8]: 69.5%
remaining activity at 2.60206 µM [3, 8]: 40.3%
remaining activity at 3 µM [3, 8]: 31.2%
remaining activity at 3.17609 µM [3, 8]: 15.6%
effect of Gly227Ala mutant on tenofovir recognition ([3]; versus wild type, Fig. 2f): no discernible effect
remaining activity at 1 µM ([4]; read-out: 6-CF uptake, Mean): 99%
remaining activity at 2 µM ([4]; read-out: 6-CF uptake, Mean): 95.2%
remaining activity at 2.30103 µM ([4]; read-out: 6-CF uptake, Mean): 87%
remaining activity at 2.60206 µM ([4]; read-out: 6-CF uptake, Mean): 68.5%
remaining activity at 3 µM ([4]; read-out: 6-CF uptake, Mean): 52.3%
remaining activity at 3.17609 µM ([4]; read-out: 6-CF uptake, Mean): 35%
IC50 ([4]; Tyr230Phe, 10 μM 6-CF, HeLa cells, mean ± s.d.): 450 ± 26 µM
IC50 at 8 min [5]: 241 ± 11 µM
IC50 [6]: 120 ± 19 µM
6-CF uptake, MEAN [2]: 99%
6-CF uptake, MEAN ([2]; WT Tenofovir, uM column 2): 79%
6-CF uptake, MEAN ([2]; WT Tenofovir, uM column 2.30103): 65%
6-CF uptake, MEAN ([2]; WT Tenofovir, uM column 2.60206): 35%
6-CF uptake, MEAN ([2]; WT Tenofovir, uM column 3): 24%
6-CF uptake, MEAN ([2]; WT Tenofovir, uM column 3.17609): 12%
Molecule: C[C@H](Cn1cnc2c(N)ncnc21)OCP(=O)(O)O [tenofovir]

Molecule: O=C(O)CCC(=O)O [succinate]
6-CF transport in presence of dicarboxylate, single experiments [2]: 62.6553% and 71.4816% and 66.0745% and 69.225% and 69.843% and 74.8162% and 55.8733% and 76.8934%

Molecule: CCCN(CCC)S(=O)(=O)c1ccc(C(=O)O)cc1 [probenecid]
inhibition of OAT3 (OAT3): inhibitor
inhibition of URAT1 (URAT1): inhibitor
inhibition of OAT2 (OAT2): poor inhibitor

Molecule: O=C(O)CCCCCC(=O)O [pimelate]
6-CF transport in presence of dicarboxylate, single experiments [2]: 18.1607% and 12.7635% and 14.6181% and 17.3198% and 16.4606% and 11.6692%

binding response (ED Fig 3e source data) (RnOat1; Conc. 7.81 nM): 0.004
binding response (ED Fig 3e source data) (RnOat1; Conc. 15.625 nM): 0.0165
binding response (ED Fig 3e source data) (RnOat1; Conc. 31.25 nM): 0.04633
binding response (ED Fig 3e source data) (RnOat1; Conc. 62.5 nM): 0.1353
binding response (ED Fig 3e source data) (RnOat1; Conc. 250 nM): 0.201
binding response (ED Fig 3e source data) (RnOat1; Conc. 500 nM): 0.2162
binding response (ED Fig 3e source data) (RnOat1; Conc. 1000 nM): 0.2225
binding response (ED Fig 3e source data) (RnOat1; Conc. 2000 nM): 0.23
Kd [7]: 0.075 µM
B1: Sybody (synthetic nanobody) against RnOat1, Syb25 (VHH)
VHH: QVQLVESGGGLVQAGGSLRLSCAASGFPVKTEWMEWYRQAPGKEREWVAAIWSYGSGTRYADSVKGRFTISRDNAKNTVYLQMNSLKPEDTAVYYCLVRVGSWYHGQGTQVTVSA
notes: selected from the concave sybody library; source: expressed from the pSB-init vector
